Several values for one entry are separate records, joined by “and”; a condition that tells them apart may be missing. Equal values may be shown once.
Columns and labels:
[1] = Example 1: subjects' reports of muscle pain, stiffness, aches, power performance and adverse effects; format: in vivo, human
From the text: In order to assess the effects of HICA (α-hydroxy-isocaproic acid) on exercise induced muscle pain and body composition, 0.496 g of HICA (produced in VTT Technical Research Centre of Finland, Helsinki) was given thrice daily after intensive training sessions to 7 healthy volunteers for 42 days in an open study. The volunteers were national top wrestlers, weighing 79.7+/−4.5 kg (mean+/−SD) and aging 26+/−6 years (mean+/−SD). They had at least 10 training sessions a week, each lasting from 1.5 to 2.5 hours.
The subjects took HICA orally as liquid (62.5 g HICA dissolved in 630 ml water and buffered by NaOH to pH 3.8). The single dose taken three times a day after each training session was 5 ml (containing […] of HICA) of the solution mixed with apple juice. On those days they had less than three training session they took extra doses of HICA so that 3 doses were taken each day. The total daily dose was 1488 mg of HICA.
Subjects were asked to report all feelings they would associate with the treatment with HICA, e.g. pain, stiffness or aches in muscles felt during and after the training sessions.

[2] = Example 2: subjective muscle aches and laboratory tests; format: in vivo, human; details: one basket ball player
Method: (§1) A basket ball player (weight 83.7 kg; BMI 26.8 kg/m^2) took after intensive daily training sessions 0.496 g of HICA three times a day for 42 days in an identical design as described in Example 1. The composition of their soft tissue was analyzed in detail. DEXA-results were analyzed by a software discriminating successfully between bone, fat and lean body mass.

[3] = commercially available colorless crystals; cited from earlier work
[4] = Example 1: open 42-day study in top wrestlers, body weight and body composition by DEXA; format: in vivo, human; details: individual subjects 1-7; after 42 days, 0.496 g thrice daily orally
[5] = as above; format: in vivo, human
From the text: (§2) In order to assess the effects of HICA (α-hydroxy-isocaproic acid) on exercise induced muscle pain and body composition, 0.496 g of HICA (produced in VTT Technical Research Centre of Finland, Helsinki) was given thrice daily after intensive training sessions to 7 healthy volunteers for 42 days in an open study. The volunteers were national top wrestlers, weighing 79.7+/−4.5 kg (mean+/−SD) and aging 26+/−6 years (mean+/−SD). They had at least 10 training sessions a week, each lasting from 1.5 to 2.5 hours. During 6 weeks preceding the HICA period there were no essential changes in the body weight of the wrestlers. At least for 6 weeks before and during the trial daily diets and the number, intensity, and length of daily training sessions were kept constant. Before the study the subjects underwent a medical examination. Twenty ml of blood was taken for chemical assays and the body weight and body composition were assessed by dual-energy X-ray absorptiometry (DEXA; LUNAR GE Medical Systems) just before starting the 42-day HICA intake. The subjects took HICA orally as liquid (62.5 g HICA dissolved in 630 ml water and buffered by NaOH to pH 3.8). The single dose taken three times a day after each training session was 5 ml (containing […] of HICA) of the solution mixed with apple juice. On those days they had less than three training session they took extra doses of HICA so that 3 doses were taken each day. The total daily dose was 1488 mg of HICA.

[6] = Example 2: basket ball player case study, body composition by DEXA; format: in vivo, human
Method: as §1

mice = details: iv. in mice, Na-salt; cited from earlier work
[7] = Example 1: blood pressure, heart rate and clinical chemistry before and after HICA; format: in vivo, human; details: n = 7, after 42 days
From the text: as §2, with “hours.” for “hours. During 6 weeks preceding the HICA period there were no essential changes in the body weight of the wrestlers. At least for 6 weeks before and during the trial daily diets and the number, intensity, and length of daily training sessions were kept constant.”

[8] = Barlas et al.; 11-day study period, 60 study subjects; cited from earlier work
[9] = Trappe et al. 2002; cited from earlier work
[10] = individual subjects 1-7, after 42 days
[11] = individual subjects 1-7, after 42 days, DEXA
[12] = mean of 7 subjects, after 42 days, P < 0.05 vs before
[13] = after vs before 42-day treatment
[14] = one basketball player, after 42-day treatment

CC(C)CC(O)C(=O)O (racemic) [HICA, DL-α-hydroxy-isocaproic acid]
adverse effects ([1]; 42-day treatment, 7 top athletes): without any adverse effects | pain, stiffness and aches in muscles felt during and after the training sessions (subjects' reports) ([1]; all 7 subjects, 42-day treatment): abolishment of pain, stiffness and aches in muscles | subjects reporting enhanced power performance ([1]; subjective, after the treatment with HICA): 6 out of 7 | exercise related muscle aches and pains (subjective report) ([2]; 42 days): disappearance of all exercise related muscle aches and pains | laboratory tests, e.g. blood pressure, heart rate or blood analyses ([2]; data not shown): no changes | solubility [3]: soluble in water and alcohols | Whole body weight, After HICA [4]: 79.1 kilograms and 88.1 kilograms and 75.2 kilograms and 77.6 kilograms and 79.3 kilograms and 79 kilograms and 85.7 kilograms | change of bone weight (DEXA) ([5]; 42-day treatment, 7 subjects): not changed | change of total soft tissue mass (total weight - bone weight) ([5]; 42-day treatment, P<0.05, paired t-test): increased significantly | change of soft tissue masses of all extremities and trunk ([5]; 42-day treatment, P<0.05 and P<0.001, respectively): increased significantly | Total weight of soft tissue in extremities, After HICA [5, 10]: 33.2 kilograms and 35.7 kilograms (2×) and 34.7 kilograms and 38.5 kilograms and 35.2 kilograms and 39.0 kilograms | Total weight of soft tissue in trunk, After HICA [5, 10]: 38.0 kilograms and 38.3 kilograms and 39.7 kilograms and 40.4 kilograms and 43.1 kilograms and 39.8 kilograms and 44.8 kilograms | Bone weight, After HICA [5, 11]: 4.1 kilograms (2×) and 4.4 kilograms and 4.0 kilograms (2×) and 3.6 kilograms and 3.9 kilograms | Soft tissue weight, After HICA [5, 11]: 75.0 kilograms and 83.7 kilograms and 71.2 kilograms and 74.0 kilograms and 75.4 kilograms and 75.1 kilograms and 81.6 kilograms | Total weight of soft tissue in trunk, After HICA, mean ([5]; mean of 7 subjects, after 42 days, P < 0.001 vs before): 40.6 kilograms | Soft tissue weight, After HICA, mean [5, 12]: 76.6 kilograms | Total weight of soft tissue in extremities, After HICA, mean [5, 12]: 36.0 kilograms | Whole body weight, After HICA, mean [5, 12]: 80.57 kilograms | Bone weight, After HICA, mean ([5]; mean of 7 subjects, after 42 days, nonsignificant vs before): 4.0 kilograms | mean weight gain during the treatment period ([5]; mean+/-SD, 7 subjects, 42-day treatment, P<0.05 paired t-test): 0.8 kg and 0.84 ± 1.0 kg | gain of lean body mass during the treatment ([6]; DEXA, one basket ball player, 42 days): 2.65 kg | bone, Change [6, 13]: +0.0 g | fat, Change [6, 13]: 0.3 kg | lean, extremities, Change [6, 13]: 1.6 kg | lean, other, Change [6, 13]: +0.0 g | lean, total, Change [6, 13]: +2.7 g | lean, trunk, Change [6, 13]: 1 kg | weight, Change [6, 13]: 3 kg | bone, After HICA [6, 14]: 4.1 kg | fat, After HICA [6, 14]: 8.1 kg | lean, extremities, After HICA [6, 14]: 34.8 kg | lean, other, After HICA [6, 14]: 4.3 kg | lean, total, After HICA [6, 14]: 74.4 kg | lean, trunk, After HICA [6, 14]: 35.45 kg | weight, After HICA [6, 14]: 86.6 kg | LD50 (mice): 650 mg/kg | B-Erythrocytes, After HICA, mean ([7]; NS): 4.9 E12/l | B-Hematocrite, After HICA, mean ([7]; NS): 42.6% | B-Hemoglobin, After HICA, mean ([7]; NS): 149.1 g/L | B-Leucocytes, After HICA, mean ([7]; NS): 5.7 E9/l | E-MCH, After HICA, mean ([7]; NS): 30.4 pg | E-MCHC, After HICA, mean ([7]; NS): 347.9 g/L | E-MCV, After HICA, mean ([7]; NS): 87.4 fL | S-Alanine amino transferase, After HICA, mean ([7]; NS): 31.6 U/l | fS-Creatinine, After HICA, mean ([7]; NS): 89.2 µM | heart rate, After HICA, mean ([7]; NS): 62.0 min⁻¹ | diastolic blood pressure, After HICA, mean ([7]; P < 0.01 vs before): 75.7 mmHg | systolic blood pressure, After HICA, mean ([7]; P < 0.05 vs before): 139.7 mmHg

CC(=O)Oc1ccccc1C(=O)O [aspirin]
effect on delayed-onset muscle soreness induced by eccentric exercise [8]: neither aspirin, paracetamol nor codeine had a beneficial effect

COc1ccc2c3c1O[C@H]1[C@@H](O)C=C[C@H]4[C@@H](C2)N(C)CC[C@@]341 [codeine]
effect on delayed-onset muscle soreness induced by eccentric exercise [8]: neither aspirin, paracetamol nor codeine had a beneficial effect

CC(C)Cc1ccc(C(C)C(=O)O)cc1 (centres unmarked) [ibuprofen]
effect on eccentric resistant training induced muscle soreness [9]: Neither ibuprofen nor paracetamol reduced eccentric resistant training induced muscle soreness

CC(=O)Nc1ccc(O)cc1 [paracetamol]
effect on eccentric resistant training induced muscle soreness [9]: Neither ibuprofen nor paracetamol reduced eccentric resistant training induced muscle soreness | effect on delayed-onset muscle soreness induced by eccentric exercise [8]: neither aspirin, paracetamol nor codeine had a beneficial effect

— patent US20080108698A1, “Nutrient Supplement and Use of the Same” (OY ELMOMED LTD, priority 2004, published 2008)
